One may read the EC50 as the midpoint of the concentration-response curve. A low value points to an effect from little substance.

Eleven molecules from ChEMBL document CHEMBL1212876, “Characterization of new PPARgamma agonists: benzimidazole derivatives-importance of positions 5 and 6, and computational studies on the binding mode” (Bioorg Med Chem, 2010) can be followed below.

SMILES strings stand for the structures.

Assay [1] has as its target T1, Peroxisome proliferator-activated receptor gamma (Homo sapiens, UniProt P37231).
T1 sequence (P37231 whole entry): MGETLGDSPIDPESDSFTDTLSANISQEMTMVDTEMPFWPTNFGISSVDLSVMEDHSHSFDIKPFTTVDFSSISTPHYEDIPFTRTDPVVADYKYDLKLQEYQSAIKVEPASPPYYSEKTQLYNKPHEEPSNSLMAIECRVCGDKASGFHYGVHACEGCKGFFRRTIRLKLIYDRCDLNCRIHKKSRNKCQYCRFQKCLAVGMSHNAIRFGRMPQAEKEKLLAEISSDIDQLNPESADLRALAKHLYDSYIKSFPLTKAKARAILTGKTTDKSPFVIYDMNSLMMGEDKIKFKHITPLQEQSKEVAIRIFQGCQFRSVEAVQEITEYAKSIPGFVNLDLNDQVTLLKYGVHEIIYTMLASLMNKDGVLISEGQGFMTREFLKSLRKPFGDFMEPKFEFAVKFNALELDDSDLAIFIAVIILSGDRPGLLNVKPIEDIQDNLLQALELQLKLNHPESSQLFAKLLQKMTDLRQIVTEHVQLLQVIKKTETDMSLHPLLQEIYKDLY
Description: Activation of Gal4-tagged human PPARgamma expressed in CHO cells by luciferase reporter gene assay

Assay [2] is described as follows: Induction of adipocyte differentiation in mouse 3T3-L1 cells at 10 uM.

In assay [1], `CCCc1nc2c(C)cc(-c3nc4ccccc4n3C)cc2n1Cc1ccc(-c2ccccc2C(=O)O)cc1` displayed a half-maximal effective concentration (EC50) of 3400 nM. For the same molecule, the Activity in assay [2] is on record as 70%.

In assay [1], `CCCc1nc2ccccc2n1Cc1ccc(-c2ccccc2C(=O)O)cc1` showed a 50% effective concentration (EC50) of 1900 nM. In assay [2], the Activity was 67%.

In turn, `CCCc1nc2cc(Br)ccc2n1Cc1ccc(-c2ccccc2C(=O)O)cc1` registered an Activity in assay [2] of 103%.

As to `CCCc1nc2ccc(Br)cc2n1Cc1ccc(-c2ccccc2C(=O)O)cc1`, the EC50 in assay [1] stood at 470 nM. This molecule also came in with an Activity in assay [2] of 102%.

With `CCCc1nc2cc(Br)c(Br)cc2n1Cc1ccc(-c2ccccc2C(=O)O)cc1`, a half-maximal effect in assay [1] (EC50) was put at 400 nM. Also, in assay [2], the Activity is recorded as 74%.

For the molecule `CCCc1nc2cc(C(=O)c3ccccc3)ccc2n1Cc1ccc(-c2ccccc2C(=O)O)cc1`, in assay [1], the EC50 was 580 nM. The Activity in assay [2] is recorded as 104%.

In assay [1], `CCCc1nc2ccc(C(=O)c3ccccc3)cc2n1Cc1ccc(-c2ccccc2C(=O)O)cc1` registered an EC50 of 620 nM. This molecule had an Activity in assay [2] of 97%.

`CCCc1nc2cc(C(O)c3ccccc3)ccc2n1Cc1ccc(-c2ccccc2C(=O)O)cc1` (stereo not given) came in with a concentration for a half-maximal effect (EC50) in assay [1] of 2900 nM. The Activity in assay [2] is 100%.

In assay [1], `CCCc1nc2ccc(C(O)c3ccccc3)cc2n1Cc1ccc(-c2ccccc2C(=O)O)cc1` (stereo not given) displayed an EC50 of 3500 nM. The Activity in assay [2] stood at 88%.

For `CCCc1nc2cc3ccccc3cc2n1Cc1ccc(-c2ccccc2C(=O)O)cc1`, it took 260 nM to reach a half-maximal effect in assay [1] (EC50). The molecule also had an Activity in assay [2] of 105%.

Regarding `CCc1ccc(CCOc2ccc(CC3SC(=O)NC3=O)cc2)nc1` (stereo not given) [PIOGLITAZONE], the Activity in assay [2] is 100%.
